The CheMixHub ionic liquid set
± gives the uncertainty stated by the source.

Test: xn = mol fraction of the nth substance listed
Conditions: 101.3 kPa

CC[n+]1ccn(C)c1.O=S(=O)([N-]S(=O)(=O)C(F)(F)F)C(F)(F)F + COC(=O)OC
viscosity (288.15 K, x1 = 0.00265): 0.69 ± 0.015 mPa·s
viscosity (288.15 K, x1 = 0.005572): 0.717 ± 0.016 mPa·s
viscosity (288.15 K, x1 = 0.006266): 0.73 ± 0.016 mPa·s
viscosity (288.15 K, x1 = 0.006515): 0.73 ± 0.016 mPa·s
viscosity (288.15 K, x1 = 0.008405): 0.748 ± 0.016 mPa·s
viscosity (288.15 K, x1 = 0.01068): 0.778 ± 0.017 mPa·s
viscosity (288.15 K, x1 = 0.01231): 0.795 ± 0.017 mPa·s
viscosity (288.15 K, x1 = 0.01323): 0.813 ± 0.018 mPa·s
viscosity (288.15 K, x1 = 0.01407): 0.821 ± 0.018 mPa·s
viscosity (288.15 K, x1 = 0.01462): 0.823 ± 0.018 mPa·s
viscosity (288.15 K, x1 = 0.01829): 0.861 ± 0.019 mPa·s
viscosity (288.15 K, x1 = 0.01968): 0.873 ± 0.019 mPa·s
viscosity (288.15 K, x1 = 0.02012): 0.879 ± 0.019 mPa·s
viscosity (288.15 K, x1 = 0.02014): 0.878 ± 0.019 mPa·s
viscosity (288.15 K, x1 = 0.02562): 0.928 ± 0.02 mPa·s
viscosity (288.15 K, x1 = 0.03021): 0.956 ± 0.021 mPa·s
viscosity (288.15 K, x1 = 0.03102): 0.964 ± 0.021 mPa·s
viscosity (288.15 K, x1 = 0.03106): 0.961 ± 0.021 mPa·s
viscosity (288.15 K, x1 = 0.03348): 0.982 ± 0.021 mPa·s
viscosity (288.15 K, x1 = 0.03766): 1.018 ± 0.022 mPa·s
viscosity (288.15 K, x1 = 0.04567): 1.086 ± 0.024 mPa·s
viscosity (288.15 K, x1 = 0.04728): 1.111 ± 0.024 mPa·s
viscosity (288.15 K, x1 = 0.05348): 1.15 ± 0.025 mPa·s
viscosity (288.15 K, x1 = 0.05932): 1.205 ± 0.026 mPa·s
viscosity (293.15 K, x1 = 0.00265): 0.644 ± 0.014 mPa·s
viscosity (293.15 K, x1 = 0.005572): 0.67 ± 0.015 mPa·s
viscosity (293.15 K, x1 = 0.006266): 0.681 ± 0.015 mPa·s
viscosity (293.15 K, x1 = 0.006515): 0.682 ± 0.015 mPa·s
viscosity (293.15 K, x1 = 0.008405): 0.698 ± 0.015 mPa·s
viscosity (293.15 K, x1 = 0.01068): 0.724 ± 0.016 mPa·s
viscosity (293.15 K, x1 = 0.01231): 0.74 ± 0.016 mPa·s
viscosity (293.15 K, x1 = 0.01323): 0.757 ± 0.017 mPa·s
viscosity (293.15 K, x1 = 0.01407): 0.763 ± 0.017 mPa·s
viscosity (293.15 K, x1 = 0.01462): 0.766 ± 0.017 mPa·s
viscosity (293.15 K, x1 = 0.01829): 0.801 ± 0.017 mPa·s
viscosity (293.15 K, x1 = 0.01968): 0.812 ± 0.018 mPa·s
viscosity (293.15 K, x1 = 0.02012): 0.817 ± 0.018 mPa·s
viscosity (293.15 K, x1 = 0.02014): 0.816 ± 0.018 mPa·s
viscosity (293.15 K, x1 = 0.02562): 0.861 ± 0.019 mPa·s
viscosity (293.15 K, x1 = 0.03021): 0.886 ± 0.019 mPa·s
viscosity (293.15 K, x1 = 0.03102): 0.893 ± 0.02 mPa·s
viscosity (293.15 K, x1 = 0.03106): 0.89 ± 0.019 mPa·s
viscosity (293.15 K, x1 = 0.03348): 0.91 ± 0.02 mPa·s
viscosity (293.15 K, x1 = 0.03766): 0.943 ± 0.021 mPa·s
viscosity (293.15 K, x1 = 0.04567): 1.005 ± 0.022 mPa·s
viscosity (293.15 K, x1 = 0.04728): 1.029 ± 0.022 mPa·s
viscosity (293.15 K, x1 = 0.05348): 1.064 ± 0.023 mPa·s
viscosity (293.15 K, x1 = 0.05932): 1.113 ± 0.024 mPa·s
viscosity (298.15 K, x1 = 0.00265): 0.604 ± 0.013 mPa·s
viscosity (298.15 K, x1 = 0.005572): 0.627 ± 0.014 mPa·s
viscosity (298.15 K, x1 = 0.006266): 0.637 ± 0.014 mPa·s
viscosity (298.15 K, x1 = 0.006515): 0.637 ± 0.014 mPa·s
viscosity (298.15 K, x1 = 0.008405): 0.653 ± 0.014 mPa·s
viscosity (298.15 K, x1 = 0.01068): 0.676 ± 0.015 mPa·s
viscosity (298.15 K, x1 = 0.01231): 0.691 ± 0.015 mPa·s
viscosity (298.15 K, x1 = 0.01323): 0.707 ± 0.015 mPa·s
viscosity (298.15 K, x1 = 0.01407): 0.713 ± 0.016 mPa·s
viscosity (298.15 K, x1 = 0.01462): 0.716 ± 0.016 mPa·s
viscosity (298.15 K, x1 = 0.01829): 0.747 ± 0.016 mPa·s
viscosity (298.15 K, x1 = 0.01968): 0.757 ± 0.017 mPa·s
viscosity (298.15 K, x1 = 0.02012): 0.762 ± 0.017 mPa·s
viscosity (298.15 K, x1 = 0.02014): 0.76 ± 0.017 mPa·s
viscosity (298.15 K, x1 = 0.02562): 0.804 ± 0.018 mPa·s
viscosity (298.15 K, x1 = 0.03021): 0.824 ± 0.018 mPa·s
viscosity (298.15 K, x1 = 0.03102): 0.83 ± 0.018 mPa·s
viscosity (298.15 K, x1 = 0.03106): 0.828 ± 0.018 mPa·s
viscosity (298.15 K, x1 = 0.03348): 0.846 ± 0.018 mPa·s
viscosity (298.15 K, x1 = 0.03766): 0.877 ± 0.019 mPa·s
viscosity (298.15 K, x1 = 0.04567): 0.934 ± 0.02 mPa·s
viscosity (298.15 K, x1 = 0.04728): 0.945 ± 0.021 mPa·s
viscosity (298.15 K, x1 = 0.05348): 0.988 ± 0.022 mPa·s
viscosity (298.15 K, x1 = 0.05932): 1.033 ± 0.023 mPa·s
viscosity (303.15 K, x1 = 0.00265): 0.567 ± 0.012 mPa·s
viscosity (303.15 K, x1 = 0.005572): 0.588 ± 0.013 mPa·s
viscosity (303.15 K, x1 = 0.006266): 0.599 ± 0.013 mPa·s
viscosity (303.15 K, x1 = 0.006515): 0.598 ± 0.013 mPa·s
viscosity (303.15 K, x1 = 0.008405): 0.612 ± 0.013 mPa·s
viscosity (303.15 K, x1 = 0.01068): 0.634 ± 0.014 mPa·s
viscosity (303.15 K, x1 = 0.01231): 0.648 ± 0.014 mPa·s
viscosity (303.15 K, x1 = 0.01323): 0.662 ± 0.014 mPa·s
viscosity (303.15 K, x1 = 0.01407): 0.668 ± 0.015 mPa·s
viscosity (303.15 K, x1 = 0.01462): 0.671 ± 0.015 mPa·s
viscosity (303.15 K, x1 = 0.01829): 0.699 ± 0.015 mPa·s
viscosity (303.15 K, x1 = 0.01968): 0.708 ± 0.015 mPa·s
viscosity (303.15 K, x1 = 0.02012): 0.713 ± 0.016 mPa·s
viscosity (303.15 K, x1 = 0.02014): 0.712 ± 0.016 mPa·s
viscosity (303.15 K, x1 = 0.02562): 0.751 ± 0.016 mPa·s
viscosity (303.15 K, x1 = 0.03021): 0.769 ± 0.017 mPa·s
viscosity (303.15 K, x1 = 0.03102): 0.774 ± 0.017 mPa·s
viscosity (303.15 K, x1 = 0.03106): 0.773 ± 0.017 mPa·s
viscosity (303.15 K, x1 = 0.03348): 0.79 ± 0.017 mPa·s
viscosity (303.15 K, x1 = 0.03766): 0.818 ± 0.018 mPa·s
viscosity (303.15 K, x1 = 0.04567): 0.871 ± 0.019 mPa·s
viscosity (303.15 K, x1 = 0.04728): 0.881 ± 0.019 mPa·s
viscosity (303.15 K, x1 = 0.05348): 0.92 ± 0.02 mPa·s
viscosity (303.15 K, x1 = 0.05932): 0.962 ± 0.021 mPa·s
viscosity (308.15 K, x1 = 0.00265): 0.534 ± 0.012 mPa·s
viscosity (308.15 K, x1 = 0.005572): 0.554 ± 0.012 mPa·s
viscosity (308.15 K, x1 = 0.006266): 0.563 ± 0.012 mPa·s
viscosity (308.15 K, x1 = 0.006515): 0.563 ± 0.012 mPa·s
viscosity (308.15 K, x1 = 0.008405): 0.576 ± 0.013 mPa·s
viscosity (308.15 K, x1 = 0.01068): 0.596 ± 0.013 mPa·s
viscosity (308.15 K, x1 = 0.01231): 0.609 ± 0.013 mPa·s
viscosity (308.15 K, x1 = 0.01323): 0.623 ± 0.014 mPa·s
viscosity (308.15 K, x1 = 0.01407): 0.628 ± 0.014 mPa·s
viscosity (308.15 K, x1 = 0.01462): 0.63 ± 0.014 mPa·s
viscosity (308.15 K, x1 = 0.01829): 0.656 ± 0.014 mPa·s
viscosity (308.15 K, x1 = 0.01968): 0.664 ± 0.015 mPa·s
viscosity (308.15 K, x1 = 0.02012): 0.669 ± 0.015 mPa·s
viscosity (308.15 K, x1 = 0.02014): 0.667 ± 0.015 mPa·s
viscosity (308.15 K, x1 = 0.02562): 0.704 ± 0.015 mPa·s
viscosity (308.15 K, x1 = 0.03021): 0.72 ± 0.016 mPa·s
viscosity (308.15 K, x1 = 0.03102): 0.725 ± 0.016 mPa·s
viscosity (308.15 K, x1 = 0.03106): 0.723 ± 0.016 mPa·s
viscosity (308.15 K, x1 = 0.03348): 0.739 ± 0.016 mPa·s
viscosity (308.15 K, x1 = 0.03766): 0.765 ± 0.017 mPa·s
viscosity (308.15 K, x1 = 0.04567): 0.814 ± 0.018 mPa·s
viscosity (308.15 K, x1 = 0.04728): 0.824 ± 0.018 mPa·s
viscosity (308.15 K, x1 = 0.05348): 0.86 ± 0.019 mPa·s
viscosity (308.15 K, x1 = 0.05932): 0.898 ± 0.02 mPa·s
viscosity (313.15 K, x1 = 0.00265): 0.504 ± 0.011 mPa·s
viscosity (313.15 K, x1 = 0.005572): 0.523 ± 0.011 mPa·s
viscosity (313.15 K, x1 = 0.006266): 0.532 ± 0.012 mPa·s
viscosity (313.15 K, x1 = 0.006515): 0.531 ± 0.012 mPa·s
viscosity (313.15 K, x1 = 0.008405): 0.543 ± 0.012 mPa·s
viscosity (313.15 K, x1 = 0.01068): 0.562 ± 0.012 mPa·s
viscosity (313.15 K, x1 = 0.01231): 0.573 ± 0.013 mPa·s
viscosity (313.15 K, x1 = 0.01323): 0.587 ± 0.013 mPa·s
viscosity (313.15 K, x1 = 0.01407): 0.591 ± 0.013 mPa·s
viscosity (313.15 K, x1 = 0.01462): 0.594 ± 0.013 mPa·s
viscosity (313.15 K, x1 = 0.01829): 0.618 ± 0.014 mPa·s
viscosity (313.15 K, x1 = 0.01968): 0.626 ± 0.014 mPa·s
viscosity (313.15 K, x1 = 0.02012): 0.63 ± 0.014 mPa·s
viscosity (313.15 K, x1 = 0.02014): 0.628 ± 0.014 mPa·s
viscosity (313.15 K, x1 = 0.02562): 0.662 ± 0.014 mPa·s
viscosity (313.15 K, x1 = 0.03021): 0.676 ± 0.015 mPa·s
viscosity (313.15 K, x1 = 0.03102): 0.68 ± 0.015 mPa·s
viscosity (313.15 K, x1 = 0.03106): 0.68 ± 0.015 mPa·s
viscosity (313.15 K, x1 = 0.03348): 0.694 ± 0.015 mPa·s
viscosity (313.15 K, x1 = 0.03766): 0.718 ± 0.016 mPa·s
viscosity (313.15 K, x1 = 0.04567): 0.764 ± 0.017 mPa·s
viscosity (313.15 K, x1 = 0.04728): 0.773 ± 0.017 mPa·s
viscosity (313.15 K, x1 = 0.05348): 0.807 ± 0.018 mPa·s
viscosity (313.15 K, x1 = 0.05932): 0.841 ± 0.018 mPa·s
